According to US6160004A, “C-10 carbon-substituted artemisinin-like trioxane compounds having antimalarial, antiproliferative and antitumor activities” (priority 1998, dated 2000):

Legend:
[1] = test system: K-562; test: cells; assay type: cell-based; conditions: Homo sapiens, K562, 48 h
[2] = test system: RPMI-8226; test: NCI 60 cell line panel screening assay (SRB), RPMI-8226; assay type: cell-based; conditions: Homo sapiens
[3] = test system: SR; test: cells; assay type: cell-based; conditions: Homo sapiens, 48 h
[4] = test system: COLO 205; test: NCI 60 cell line panel screening assay (SRB), COLO 205; assay type: cell-based; conditions: Homo sapiens, COLO 205, 48 h, read-out: Log10 GI50 (converted)
[5] = test system: HCT-15; test: cells; assay type: cell-based; conditions: Homo sapiens; HCT-15, colon cancer, 48 h; read-out: Log10 LC50 (converted)
[6] = test system: KM12; test: cells; assay type: cell-based; conditions: Homo sapiens, KM12, 48 h, read-out: Log10 GI50 (converted)
[7] = test system: SW-620; test: NCI 60 cell line panel screening assay (SRB), SW-620; assay type: cell-based; conditions: Homo sapiens
[8] = test system: SF-268; test: cells; assay type: cell-based; conditions: Homo sapiens; SF-268, CNS cancer, 48 h; read-out: Log10 LC50 (converted)
[9] = test system: SNB-19; test: cells; assay type: cell-based; conditions: Homo sapiens; SNB-19, CNS cancer, 48 h; read-out: Log10 LC50 (converted)
[10] = test system: SNB-75; test: cells; assay type: cell-based; conditions: Homo sapiens, SNB-75, CNS cancer, 48 h
[11] = test system: U251; test: cells; assay type: cell-based; conditions: Homo sapiens, U-251, 48 h, read-out: Log10 GI50 (converted)
[12] = test system: SK-MEL-28; test: cells; assay type: cell-based; conditions: Homo sapiens, SK-MEL-28, melanoma, 48 h
[13] = test system: UACC-257; test: cells; assay type: cell-based; conditions: Homo sapiens, UACC-257, 48 h
[14] = test system: OVCAR-3; test: cells; assay type: cell-based; conditions: Homo sapiens; OVCAR-3, ovarian cancer, 48 h; read-out: Log10 LC50 (converted)
[15] = test system: SK-OV-3; test: cells; assay type: cell-based; conditions: Homo sapiens; SK-OV-3, ovarian cancer, 48 h; read-out: Log10 TGI (converted)
[16] = test system: CAKI-1; test: NCI 60 cell line panel screening assay (SRB), CAKI-1; assay type: cell-based; conditions: Homo sapiens; CAKI-1, renal cancer, 48 h; read-out: Log10 GI50 (converted)
[17] = test system: PC-3; test: cells; assay type: cell-based; conditions: Homo sapiens; PC-3, prostate cancer, 48 h; read-out: Log10 GI50 (converted)
[18] = test system: MCF7; test: cells; assay type: cell-based; conditions: Homo sapiens, MCF7, 48 h, read-out: Log10 GI50 (converted)
[19] = test system: HS 578T; test: cells; assay type: cell-based; conditions: Homo sapiens, Hs-578T, 48 h, read-out: Log10 GI50 (converted)
[20] = test system: BT-549; test: cells; assay type: cell-based; conditions: Homo sapiens; BT-549, breast cancer, 48 h; read-out: Log10 LC50 (converted)
[21] = test system: MOLT-4; conditions: MOLT-4, FIG. 6
[22] = test system: NCI-H322M; test: cells; conditions: Homo sapiens, 48 h
[23] = test system: 60 cell line panel; test: NCI 60 cell line panel, whole panel; conditions: panel
[24] = read-out: Log10 GI50 (converted)
[25] = read-out: Log10 LC50 (converted)

CC1CCC2C(C)C(CC(=O)c3ccc(C(=O)CC4OC5OC6(C)CCC7C(C)CCC(C4C)C57OO6)cc3)OC3OC4(C)CCC1C32OO4 (stereo not drawn) [Dimer 38]
3.17: Delta of Log10 TGI [23]
3.8 µM: GI50 [22, 24]
21.4 µM: IC (TGI) [15]
0.0112 µM: GI50 [16]
> 100 µM: CC50 [1, 25] | CC50 ([2]; RPMI-8226, 48 h, read-out: Log10 LC50 (converted)) | CC50 ([3]; leukemia, read-out: Log10 LC50 (converted)) | CC50 [5] | CC50 ([7]; SW-620, colon cancer, 48 h, read-out: Log10 LC50 (converted)) | CC50 [8] | CC50 [9] | CC50 [10, 25] | CC50 [12, 25] | IC (TGI) ([12]; read-out: Log10 TGI) | CC50 [13, 25] | CC50 [14] | CC50 [20] | CC50 [22, 25] | IC (TGI) ([22]; read-out: Log10 TGI)
0.0209 µM: GI50 [13, 24]
< 0.01 µM: GI50 [1, 24] | GI50 ([2]; RPMI-8226, leukemia, 48 h, read-out: Log10 GI50 (converted)) | IC (TGI) ([2]; RPMI-8226, leukemia, 48 h, read-out: Log10 TGI) | GI50 [3, 24] | GI50 [4] | GI50 [6] | GI50 ([7]; SW-620, 48 h, read-out: Log10 GI50 (converted)) | GI50 [11] | GI50 [17] | GI50 [18] | GI50 [19]
approximately 10^-4 M: concentration for cytostasis (PG 0) [21]
0.117 µM: GI50 [10, 24]
